Consider 23 compounds from ChEMBL document CHEMBL4043066, “Drug Discovery Targeting Bromodomain-Containing Protein 4” (J Med Chem, 2017).

Series [1] has as its target T1, Bromodomain-containing protein 4 (Homo sapiens, UniProt O60885). The experiment in a line: Inhibition of His-tagged BRD4 (44 to 477 residues) (unknown origin) using acetyl-histone H4 as substrate after 35 mins by TR-FRET assay.
The subject of series [2] is MV4-11. As to the kind of experiment: Growth inhibition of human MV4-11 cells after 4 days by CellTiter-Glo assay. Type of series: functional. The settings on record: MV4-11, 96 h.
Series [3] deals with MV4-11. As to the kind of experiment: Antiproliferative activity against human MV4-11 cells. Format: functional, cell-based.
Series [4] is described as follows: Metabolic stability in human liver microsomes assessed as compound remaining at 1 uM after 30 mins in presence of NADPH by LC/MS analysis. Conditions: read-out: Stability. Type of series: ADME, microsome.
Series [5] in a line: Metabolic stability in CD1 mouse liver microsomes assessed as compound remaining at 1 uM after 30 mins in presence of NADPH by LC/MS analysis. Format: ADME, microsome. The settings on record: read-out: Stability.
For the next series, the system named is MT4. The experiment in a line: Antiproliferative activity against human MT4 cells after 5 days by CellTiter-Glo assay. Type of series: functional. Conditions: MT4, 120 h.
Series [6] relates to MX1. As to the kind of experiment: Antiproliferative activity against human MX1 cells after 72 hrs by CellTiter-Glo assay. Type of series: functional, cell-based. The settings on record: MX1, 72 h.
The target in series [7] is T1, Bromodomain-containing protein 4. As to the kind of experiment: Inhibition of GST-tagged BRD4 bromodomain 1 (44 to 168 residues) (unknown origin) using biotinylated acetyl-histone H4 peptide as substrate after 30 mins in dark by AlphaScreen assay.
The test system of series [8] is MX1. The experiment in a line: Antiproliferative activity against human MX1 cells incubated for >= 72 hrs by CellTiter-Glo assay. Type of series: functional, cell-based. The settings on record: MX1, 72 h.
The target in series [9] is T1, Bromodomain-containing protein 4. The experiment in a line: Inhibition of His-tagged BRD4 bromodomain 1 (K57 to E168 residues) (unknown origin) after 1 hr by TR-FRET assay.
Series [10] shares this target. The experiment in a line: Inhibition of BRD4 bromodomain 1 (unknown origin) using biotinylated substrate after 1 hr by AlphaLisa assay.
The test system of series [11] is MV4-11. As to the kind of experiment: Antiproliferative activity against human MV4-11 cells after 72 hrs by alamarBlue assay. Format: functional, cell-based. Conditions: MV4-11, 72 h.
Series [12] concerns the target T1, Bromodomain-containing protein 4. The experiment in a line: Inhibition of recombinant human His-tagged BRD4 bromodomain 1 (44 to 168 residues) expressed in Escherichia coli BL21(DE3) after 30 mins by AlphaScreen assay.
Series [13] concerns MV4-11. As to the kind of experiment: Antiproliferative activity against human MV4-11 cells after 4 days by CellTiter-Glo assay. Type of series: functional, cell-based. The settings on record: MV4-11, 96 h.
A further series addresses CREB-binding protein (Homo sapiens, UniProt Q92793). The experiment in a line: Inhibition of His-tagged CREBP (unknown origin) using acetyl-histone H4 as substrate after 35 mins by AlphaScreen assay.
Series [14] has as its target T1, Bromodomain-containing protein 4. As to the kind of experiment: Inhibition of His-tagged BRD4 (unknown origin) using acetyl-histone H4 as substrate after 35 mins by TR-FRET assay.
Series [15] is described as follows: Antitumor activity against human JJN3R cells xenografted subcutaneously in mouse assessed as tumor growth inhibition at 1 mg/kg, po relative to control. Type of series: functional. The settings on record: JJN-3R, read-out: TGI.
The target in series [16] is T1, Bromodomain-containing protein 4. The experiment in a line: Inhibition of recombinant human N-terminal His6-tagged BRD4 bromodomain 1 expressed in Escherichia coli BL21(DE3) using biotinylated histone peptide as substrate after 60 mins by TR-FRET assay.
Series [17] concerns MV4-11. As to the kind of experiment: Downregulation of BRD4 in human MV4-11 cells at 100 nM after 18 hrs by immunoblot analysis relative to control. Format: functional.
The target of series [18] is T1, Bromodomain-containing protein 4. As to the kind of experiment: Inhibition of GST-tagged BRD4 (unknown origin) using biotinylated acetyl-histone H4 peptide as substrate after 30 mins by AlphaScreen assay.
Series [19] shares this target. The experiment in a line: Inhibition of biotin-labeled acetylated peptide binding to BRD4 bromodomain 1 (unknown origin) expressed in Escherichia coli BL21 after 1 hr by BROMOscan assay.
For series [20] the target is unchanged.
Description: Displacement of Halo-tagged histone H3.3 from N-terminal NanoLuc-tagged BRD4 bromodomain 1 (44 to 168 residues) (unknown origin) expressed in HCT116 cells after 18 hrs by NanoBRET assay
Series [21] has the same target. This is another data set of the same source.
Description: Displacement of Halo-tagged histone H3.3 from NanoLuc-tagged full length BRD4 (unknown origin) expressed in HCT116 cells after 18 hrs by NanoBRET assay
Series [22] concerns MV4-11. The experiment in a line: Antitumor activity against human MV4-11 cells harboring MLL-AF4 xenografted in mouse assessed as tumor growth inhibition at 1 mg/kg, po qd up to 28 days relative to control. Type of series: functional. The settings on record: MV4-11, po, 672 h, read-out: TGI.

Chain of CREB-binding protein (Q92793 whole entry): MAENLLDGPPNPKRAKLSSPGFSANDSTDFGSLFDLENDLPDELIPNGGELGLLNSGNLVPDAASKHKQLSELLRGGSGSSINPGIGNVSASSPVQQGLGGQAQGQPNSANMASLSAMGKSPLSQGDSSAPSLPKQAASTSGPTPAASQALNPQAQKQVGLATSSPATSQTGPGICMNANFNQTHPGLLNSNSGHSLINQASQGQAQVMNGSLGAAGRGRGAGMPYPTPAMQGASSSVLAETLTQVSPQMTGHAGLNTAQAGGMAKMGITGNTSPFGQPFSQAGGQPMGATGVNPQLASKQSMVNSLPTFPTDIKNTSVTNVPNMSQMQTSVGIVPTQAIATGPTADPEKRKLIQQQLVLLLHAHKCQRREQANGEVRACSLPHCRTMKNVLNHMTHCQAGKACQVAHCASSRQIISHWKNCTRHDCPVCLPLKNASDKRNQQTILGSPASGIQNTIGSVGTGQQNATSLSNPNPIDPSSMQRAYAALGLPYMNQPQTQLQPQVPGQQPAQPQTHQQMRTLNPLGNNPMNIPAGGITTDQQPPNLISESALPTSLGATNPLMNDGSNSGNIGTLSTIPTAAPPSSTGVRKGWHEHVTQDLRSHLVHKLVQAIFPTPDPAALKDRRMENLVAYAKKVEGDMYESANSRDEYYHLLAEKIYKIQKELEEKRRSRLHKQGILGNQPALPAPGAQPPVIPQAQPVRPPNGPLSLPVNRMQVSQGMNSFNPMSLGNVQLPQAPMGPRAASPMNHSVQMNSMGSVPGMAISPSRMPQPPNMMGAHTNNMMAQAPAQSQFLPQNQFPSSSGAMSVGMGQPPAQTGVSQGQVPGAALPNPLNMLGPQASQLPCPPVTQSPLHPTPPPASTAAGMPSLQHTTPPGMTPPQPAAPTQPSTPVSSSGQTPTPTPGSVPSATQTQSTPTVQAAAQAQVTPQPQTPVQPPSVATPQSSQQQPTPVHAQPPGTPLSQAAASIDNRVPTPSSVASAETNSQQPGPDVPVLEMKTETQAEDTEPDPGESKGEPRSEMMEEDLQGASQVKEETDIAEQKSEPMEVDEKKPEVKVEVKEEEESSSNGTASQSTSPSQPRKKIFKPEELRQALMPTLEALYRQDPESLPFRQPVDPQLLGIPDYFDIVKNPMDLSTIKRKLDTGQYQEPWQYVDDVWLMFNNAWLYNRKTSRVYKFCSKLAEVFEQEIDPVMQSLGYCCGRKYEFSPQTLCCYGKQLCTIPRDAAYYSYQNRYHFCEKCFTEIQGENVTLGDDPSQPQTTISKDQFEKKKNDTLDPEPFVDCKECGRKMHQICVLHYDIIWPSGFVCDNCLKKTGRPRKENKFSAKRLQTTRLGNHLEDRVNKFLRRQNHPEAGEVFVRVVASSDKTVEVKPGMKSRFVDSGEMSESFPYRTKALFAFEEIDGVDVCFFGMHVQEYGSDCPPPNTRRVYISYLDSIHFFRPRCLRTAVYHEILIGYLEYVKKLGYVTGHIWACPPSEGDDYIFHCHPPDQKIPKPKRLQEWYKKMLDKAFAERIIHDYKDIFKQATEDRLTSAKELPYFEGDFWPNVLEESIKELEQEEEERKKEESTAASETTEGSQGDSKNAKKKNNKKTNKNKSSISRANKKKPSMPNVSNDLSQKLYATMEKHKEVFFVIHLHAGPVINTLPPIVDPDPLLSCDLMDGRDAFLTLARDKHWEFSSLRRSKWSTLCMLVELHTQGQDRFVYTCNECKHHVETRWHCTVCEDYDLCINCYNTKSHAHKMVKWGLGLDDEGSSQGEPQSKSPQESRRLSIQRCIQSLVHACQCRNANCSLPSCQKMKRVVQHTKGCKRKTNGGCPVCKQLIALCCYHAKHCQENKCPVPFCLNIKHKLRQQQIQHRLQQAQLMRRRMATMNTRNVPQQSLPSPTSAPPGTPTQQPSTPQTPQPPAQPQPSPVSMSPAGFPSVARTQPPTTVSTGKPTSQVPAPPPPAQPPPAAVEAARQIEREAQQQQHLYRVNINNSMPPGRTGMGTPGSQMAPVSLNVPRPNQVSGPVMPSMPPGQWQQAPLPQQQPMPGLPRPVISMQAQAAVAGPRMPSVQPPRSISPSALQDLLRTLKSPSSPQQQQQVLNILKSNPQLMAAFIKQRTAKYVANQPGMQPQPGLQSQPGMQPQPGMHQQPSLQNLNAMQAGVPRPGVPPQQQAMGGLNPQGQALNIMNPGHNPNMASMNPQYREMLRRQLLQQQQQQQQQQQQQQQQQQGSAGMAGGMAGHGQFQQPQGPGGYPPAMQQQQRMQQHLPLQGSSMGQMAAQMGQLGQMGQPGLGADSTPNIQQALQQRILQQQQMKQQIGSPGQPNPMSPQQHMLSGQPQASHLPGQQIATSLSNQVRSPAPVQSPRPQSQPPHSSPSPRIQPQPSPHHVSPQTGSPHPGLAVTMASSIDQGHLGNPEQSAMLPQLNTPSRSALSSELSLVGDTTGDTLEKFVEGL

Regarding `CC(=O)N1CC(n2cc(C3CC3)c3c2C(c2ccc(Cl)cc2)N(c2cc(C)c4nnn(C)c4n2)C3=O)C1` (stereo unspecified), the IC50 in series [1] is less than 11 nM. For the same compound, the GI50 in the series on MV4-11 [2] turned out to be 0.3 nM.
As to `Cc1noc(C)c1-c1ccc2c(c1)C(c1ccsc1)(N1CCC[C@H](N)C1)C(=O)N2` (stereo partly specified), in the series on MV4-11 [3], the IC50 worked out at 34 nM.
On to `COc1cc2c(cc1-c1c(C)noc1C)ncc1nc(C3CCOCC3)n([C@H](C)COC(F)F)c12`, for which the remaining at 0.5 h, 1 µM in series [4] stood at 43%; in series [5], 56%.
In the series with MV4-11 [3], `Cc1noc(C)c1-c1ccc2c(c1)C(O)(c1ccccc1)C(=O)N2` (stereo unspecified) registered an IC50 of 58 nM.
Compound `Cc1noc(C)c1-c1cc(C(O)(c2cnccn2)c2c(F)cccc2F)c2[nH]c(=O)[nH]c2c1` (stereo unspecified) displayed a CC50 in the series with MT4 of 9.7 nM.
Regarding `CCOc1cc(=O)n(C)cc1-c1cc(N(CC2CC2)S(=O)(=O)CC)ccc1Oc1ccc(F)cc1F`, in the series on MX1 [6], a half-maximal effect (EC50) was put at 233 nM.
In series [7], `Cc1cc(-c2nc3ccc(N4CCOC[C@@H]4C)cc3n2[C@@H](C)c2ccccc2)cn(C)c1=O` came in with an IC50 of 12 nM.
The compound `CCS(=O)(=O)Nc1ccc(Oc2ccc(F)cc2F)c(-c2cn(C)c(=O)c3[nH]c(C#CCOC)cc23)c1` showed an EC50 with MX1 [8] of 48 nM. The compound also showed a Ki in series [9] of 1.6 nM.
Turning to `CCOC(=O)CC1N=C(c2ccc(Cl)cc2)c2cc(OC)ccc2-c2cn(C)c(=O)cc21` (stereo unspecified), the IC50 in [10] amounted to 3 nM. For the same compound, it took 2 nM to reach a half-maximal effect with MV4-11 [11] (EC50).
In the case of `CC1=C(C)C2C(c3ccc(Cl)cc3)=N[C@@H](CC(=O)NCCOCCOCCOCCOCCOCCOCCOCCNC(=O)C[C@@H]3N=C(c4ccc(Cl)cc4)c4c(sc(C)c4C)-n4c(C)nnc43)c3nnc(C)n3C2S1` (stereo partly specified), the results for the IC50 (in series [12]; in the series with MV4-11 [3]) were 3.1 nM and 0.17 nM, respectively.
As for `Cc1cc(N2C(=O)c3c(c(CO)nn3C3CC3)[C@H]2c2ccc(Cl)cc2)cn2c(C)nnc12`, the results for the 50% inhibitory concentration (IC50) (in the series on MV4-11 [13]; at CREB-binding protein; in series [14]) were 9.4 nM, 1400 nM and less than 11 nM, respectively.
Take `[2H]C([2H])([2H])c1nnn(C)c1-c1cnc2c3ccc(C(C)(C)O)cc3n([C@H](c3ccccc3)C3CCC(F)(F)CC3)c2c1`: in series [15], the inhibition in vivo at 1 mg/kg was found to be 93%. Moreover, the IC50 in [16] was less than 5 nM.
In turn, `CNC(=O)N1N=C(c2ccc(N3C[C@H]4CC[C@@H](C3)O4)cc2)c2cc(OC)c(OC)cc2C[C@@H]1C` gave an IC50 in the series with MV4-11 [11] of 30 nM.
For the compound `CCNC(=O)CC1N=C(C2CCCCC2)c2cc(OC)ccc2-c2cn(C)c(=O)cc21` (stereo unspecified), the EC50 in the series with MV4-11 [11] is 8 nM.
Compound `Cc1sc2c(c1C)C(c1ccc(Cl)cc1)=N[C@@H](CC(=O)NCCCCNC(=O)COc1cccc3c1C(=O)N(C1CCC(=O)NC1=O)C3=O)c1nnc(C)n1-2` (stereo partly specified) showed an Activity with MV4-11 [17] greater than 80%.
As to `Cc1[nH]c(-c2ccccc2NC2CCCCC2F)cc1C(N)=O` (stereo unspecified), the response with MX1 [8] was half-maximal at 433 nM (EC50).
In the series on MV4-11 [11], `CNC(=O)N1N=C(c2ccc(N3CC4(CCS4(=O)=O)C3)cc2)c2cc(-n3nc(C)cc3C)ccc2C[C@@H]1C` displayed an IC50 of 80 nM.
In series [18], `Cc1noc(C)c1-c1ccc2c(c1)[C@H](c1ccccc1)N(C)C2=O` had an IC50 of 14 nM.
With `Cc1sc2c(c1C)C(c1ccc(Cl)cc1)=N[C@H](CC(=O)OC1CCC(O)CC1)c1nnc(C)n1-2` (stereo partly specified), the Kd in series [19] came to 1.3 nM.
For `Cc1nn(C2CC2)c2c1[C@@H](c1ccc(Cl)cc1)N(c1cc(C)c3nnc(C)n3n1)C2=O`, the IC50 in the series on MV4-11 [13] was 3.4 nM; on CREB-binding protein, 3700 nM; in [14], less than 11 nM.
Regarding `COc1nnc2ccc(N3CCC(c4ccc(OCCN5CCN(C)C(=O)[C@H]5C)cc4)CC3)nn12` [AZD-5153], the IC50 is 1600 nM in [20] and 5 nM in series [21]. The inhibition in vivo at 1 mg/kg with MV4-11 [22] was determined as 72%.
For `CCNC(=O)CC1N=C(c2c(F)cccc2F)c2cc(OC)ccc2-c2cn(C)c(=O)cc21` (stereo unspecified), the IC50 in series [10] was less than 0.5 nM. Besides, the EC50 in the series on MV4-11 [11] is 13 nM.
As for `Cc1noc(C)c1-c1ccc2c(c1)C(c1ccccc1)N(CC1CCN(C)CC1)C(=O)N2` (stereo unspecified), the concentration for half-maximal inhibition (IC50) in series [18] stood at 31 nM.
